For 70 molecules, LogP and chromatographic logP results are on record in US12534456B2, “Heterocyclyl pyridines as novel fungicides” (Bayer Aktiengesellschaft, priority 2020, dated 2026).

Molecules are shown by their SMILES.

The first data set is described as follows: physchem. In kind it is physicochemical.
Conditions: not given
On the procedure: Measurement of Log P values as provided herein was performed according to EEC directive 79/831 Annex V.A8 by HPLC (High Performance Liquid Chromatography) on reversed phase columns with the following methods: • ^[a]
If more than one Log P value is available within the same method, all the values are given and separated by “+”.
Lambda-max-values were determined using UV-spectra from 200 nm to 400 nm and the peak values of the chromatographic signals
`Cc1ccc(CC(CON2C(=O)c3ccccc3C2=O)NC(=O)c2cc(Cl)ncc2Oc2cccc(Cl)c2)c(C)c1` (stereo not shown) [3-12]: the LogP was 5.11^[a]. Same read-out and setting: then `Cc1ccc(CC(CON2C(=O)c3ccccc3C2=O)NC(=O)c2cc(Cl)ncc2Oc2cccc(C(F)(F)F)c2)c(C)c1` (stereo not shown) [3-13], with 5.20^[a]. Still for that read-out and setting: to `NOCC(Cc1ccc(Br)cc1Cl)NC(=O)c1cc(Cl)ncc1Oc1cccc(C2CC2)c1` (stereo not shown) [4-02] belongs 4.15^[a]; to `NOCC(Cc1ccc(Cl)cc1Cl)NC(=O)c1cc(Cl)ncc1Oc1cccc(C2CC2)c1` (stereo not shown) [4-03], 4.06^[a]. Regarding `NOCC(Cc1ccc(Cl)cc1Cl)NC(=O)c1cc(Cl)ncc1Oc1cccc(C2CC2)c1F` (stereo not shown) [4-04], the LogP is 3.96^[a]. The same measure, in the same setting: to `NOCC(Cc1ccc(Br)cc1Cl)NC(=O)c1cc(Cl)ncc1Oc1cccc(C2CC2)c1F` (stereo not shown) [4-05] belongs 4.08^[a]; to `Cc1ccc(CC(CON)NC(=O)c2cc(Cl)ncc2Oc2cccc(C3CC3)c2F)c(C)c1` (stereo not shown) [4-06], 3.72^[a]; to `Cc1cccc(Oc2cnc(Cl)cc2C(=O)NC(CON)Cc2ccc(C)cc2C)c1` (stereo not shown) [4-07], 3.37^[a]. Same read-out and setting: to `COc1cccc(Oc2cnc(Cl)cc2C(=O)NC(CON)Cc2ccc(Br)cc2Cl)c1` (stereo not shown) [4-08] belongs 3.39^[a].

As for `COc1cccc(Oc2cnc(Cl)cc2C(=O)NC(CON)Cc2ccc(C)cc2C)c1` (stereo not shown) [4-09], the LogP is 3.08^[a]. The same measure, in the same setting: then `NOCC(Cc1ccc(Br)cc1Cl)NC(=O)c1cc(Cl)ncc1Oc1cccc(C(F)F)c1` (stereo not shown) [4-10], with 3.46^[a]; and `Cc1ccc(CC(CON)NC(=O)c2cc(Cl)ncc2Oc2cccc(C(F)F)c2)c(C)c1` (stereo not shown) [4-11], with 3.09^[a]; and `Cc1ccc(CC(CON)NC(=O)c2cc(Cl)ncc2Oc2cccc(Cl)c2)c(C)c1` (stereo not shown) [4-12], with 3.35^[a]. The same measure, in the same setting: then `Cc1ccc(CC(CCN)NC(=O)c2cc(Cl)ncc2Oc2cccc(C(F)(F)F)c2)c(C)c1` (stereo not shown) [4-13], with 2.41^[a]; and `Cc1ccc(CC(CCNC(c2ccccc2)(c2ccccc2)c2ccccc2)NC(=O)c2cc(Cl)ncc2Oc2cccc(C(F)(F)F)c2)c(C)c1` (stereo not shown) [4-14], with 5.35^[a].

As to `Cc1ccc(CC2CON=C(c3cc(Cl)ncc3Br)N2)c(C)c1` (stereo not shown) [7-01], the LogP was 3.31^[a].

For `Clc1ccc(CC2CON=C(c3cc(Cl)ncc3Br)N2)c(Cl)c1` (stereo not shown) [7-04], the LogP is 3.45^[a]. As to `Cc1ccc(CC2CON=C(c3cc(Cl)ncc3Br)N2)c(Cl)c1` (stereo not shown) [7-05], the LogP is 3.38^[a].

`Cc1cc(Cl)ccc1CC1CON=C(c2cc(Cl)ncc2Br)N1` (stereo not shown) [7-06]: the LogP was 3.44^[a]. On the same count and under the same terms, then `Cc1cccc(CC2CON=C(c3cc(Cl)ncc3Br)N2)c1Cl` (stereo not shown) [7-07], with 3.44^[a]. Still for that read-out and setting: then `Cc1ccc(Cl)c(CC2CON=C(c3cc(Cl)ncc3Br)N2)c1` (stereo not shown) [7-09], with 3.46^[a]; and `Cc1ccc(CC(N)CC(N)=O)c(C)c1` (stereo not shown) [13-09], with 0.69^[a]; and `Cc1ccc(CC(CCl)NC(=O)c2c(Oc3cccc(C(F)(F)F)c3)cnc(Cl)c2F)c(C)c1` (stereo not shown) [14-01], with 5.03^[a]. Regarding `Cc1ccc(CC(CCl)NC(=O)c2cc(Cl)ncc2Oc2cccc(C(F)(F)F)c2)c(C)c1` (stereo not shown) [14-02], the LogP is 5.32^[a]. On the same count and under the same terms, then `Cc1ccc(CC(CCl)NC(=O)c2cc(Cl)ncc2Oc2cccc(C(F)(F)F)c2)cc1` (stereo not shown) [14-03], with 5.00^[a]. The same measure, in the same setting: then `Cc1ccc(CC(CCl)NC(=O)c2c(Oc3cccc(C(F)(F)F)c3)cnc(Cl)c2I)c(C)c1` (stereo not shown) [14-04], with 5.18^[a]. Same read-out and setting: then `COc1cc(C(=O)NC(CCl)Cc2ccc(C)cc2C)c(Oc2cccc(C(F)(F)F)c2)cn1` (stereo not shown) [14-05], with 5.26^[a]; and `Cc1ccc(CC(CCl)NC(=O)c2cc(Cl)nc(F)c2Oc2cccc(C(F)(F)F)c2)c(C)c1` (stereo not shown) [14-06], with 5.45^[a]; and `Cc1ccc(CC(CCl)NC(=O)c2cc(Cl)nc(Cl)c2Oc2cccc(C(F)(F)F)c2)c(C)c1` (stereo not shown) [14-07], with 5.45^[a]. Turning to `Cc1cc(Br)ccc1CC(CCl)NC(=O)c1cc(Cl)ncc1Oc1cccc(C(F)(F)F)c1` (stereo not shown) [14-08], the LogP is 5.31^[a]. Take `O=C(NC(CCl)Cc1ccc(C(F)(F)F)cc1Cl)c1cc(Cl)ncc1Oc1cccc(C(F)(F)F)c1` (stereo not shown) [14-09]: the LogP was 5.36^[a]. On the same count and under the same terms, then `O=C(NC(CCl)Cc1csc(C(F)(F)F)c1)c1cc(Cl)ncc1Oc1cccc(C(F)(F)F)c1` (stereo not shown) [14-10], with 4.96^[a]; and `O=C(NC(CCl)Cc1csc(Cl)c1)c1cc(Cl)ncc1Oc1cccc(C(F)(F)F)c1` (stereo not shown) [14-11], with 4.96^[a]; and `Cc1ccc(C(CCl)NC(=O)c2cc(Cl)ncc2Oc2cccc(C(F)(F)F)c2)cc1` (stereo not shown) [14-12], with 4.49^[a]. On the same count and under the same terms, to `Cc1ccc(CC(CCl)NC(=NO)c2c(Oc3cccc(C(F)(F)F)c3)cnc(Cl)c2F)c(C)c1` (stereo not shown) [16-01] belongs 5.74^[a]. The same measure, in the same setting: to `Cc1ccc(CC(CCl)NC(=NO)c2cc(Cl)ncc2Oc2cccc(C(F)(F)F)c2)c(C)c1` (stereo not shown) [16-03] belongs 4.80^[a].

With `Cc1ccc(CC(CCl)NC(=NO)c2cc(Cl)ncc2Oc2cccc(C(F)(F)F)c2)cc1` (stereo not shown) [16-04], the LogP was 4.59^[a]. On to `Cc1ccc(CC(CCl)NC(=NO)c2c(Oc3cccc(C(F)(F)F)c3)cnc(Cl)c2I)c(C)c1` (stereo not shown) [16-05], for which the LogP is 5.28^[a]. `Cc1ccc(CC(CCl)NC(=NO)c2cc(Cl)nc(F)c2Oc2cccc(C(F)(F)F)c2)c(C)c1` (stereo not shown) [16-06]: the LogP is 5.16^[a]. The same measure, in the same setting: to `Cc1ccc(CC(CCl)NC(=NO)c2cc(Cl)nc(Cl)c2Oc2cccc(C(F)(F)F)c2)c(C)c1` (stereo not shown) [16-07] belongs 5.35^[a]; to `ON=C(NC(CCl)Cc1ccc(C(F)(F)F)cc1Cl)c1cc(Cl)ncc1Oc1cccc(C(F)(F)F)c1` (stereo not shown) [16-09], 4.97^[a].

Regarding `ON=C(NC(CCl)Cc1csc(C(F)(F)F)c1)c1cc(Cl)ncc1Oc1cccc(C(F)(F)F)c1` (stereo not shown) [16-10], the LogP was 4.59^[a].

With `ON=C(NC(CCl)Cc1csc(Cl)c1)c1cc(Cl)ncc1Oc1cccc(C(F)(F)F)c1` (stereo not shown) [16-11], the LogP was 4.48^[a]. With `Cc1ccc(C(CCl)NC(=NO)c2cc(Cl)ncc2Oc2cccc(C(F)(F)F)c2)cc1` (stereo not shown) [16-12], the LogP was 4.19^[a]. Still for that read-out and setting: then `Cc1ccc(CC(CCl)NC(=O)c2cc(Cl)ncc2Br)c(Cl)c1` (stereo not shown) [17-02], with 3.94^[a]; and `COc1cc(C(=O)NC(CCl)Cc2ccc(C)cc2Cl)c(Br)cn1` (stereo not shown) [17-03], with 3.94^[a]; and `Cc1cc(Cl)ccc1CC(CCl)NC(=O)c1cc(Cl)ncc1Br` (stereo not shown) [17-04], with 3.98^[a].

`Cc1cccc(CC(CCl)NC(=O)c2cc(Cl)ncc2Br)c1Cl` (stereo not shown) [17-05]: the LogP was 3.97 ^[a].

With `Cc1ccc(CC(CCl)NC(=NO)c2cc(Cl)ncc2Br)c(Cl)c1` (stereo not shown) [18-02], the LogP was 3.85^[a]. On the same count and under the same terms, then `COc1cc(C(=NO)NC(CCl)Cc2ccc(C)cc2Cl)c(Br)cn1` (stereo not shown) [18-03], with 4.12^[a]. On the same count and under the same terms, to `O=C(O)c1c(Oc2cccc(C(F)(F)F)c2)cnc(Cl)c1F` [Compound 1-01] belongs 2.28^[a]. On to `CC(=O)c1cc(C(=O)O)c(Oc2cccc(C(F)(F)F)c2)cn1` [Compound 1-02], for which the LogP is 2.54^[a]. Take `COC(=O)c1cc(C#C[Si](C)(C)C)ncc1Oc1cccc(C(F)(F)F)c1` [Compound 1-03]: the LogP was 5.35^[a]. The same measure, in the same setting: to `COC(=O)c1cc(C(C)=O)ncc1Oc1cccc(C(F)(F)F)c1` [Compound 1-04] belongs 3.59^[a]; to `C=C(OCC)c1cc(C(=O)OC)c(Oc2cccc(C(F)(F)F)c2)cn1` [Compound 1-05], 4.70^[a]; to `O=C(O)c1cc(Cl)ncc1Oc1cccc(C2CC2)c1F` [Compound 1-06], 2.97^[a]. Same read-out and setting: then `Cc1cccc(Oc2cnc(Cl)cc2C(=O)O)c1` [Compound 1-08], with 2.60^[a]; and `COc1cccc(Oc2cnc(Cl)cc2C(=O)O)c1` [Compound 1-09], with 2.34^[a]; and `O=C(O)c1cc(Cl)ncc1Oc1cccc(C(F)F)c1` [Compound 1-10], with 2.48^[a]. The same measure, in the same setting: then `O=C(O)c1cc(Cl)ncc1Oc1cccc(Cl)c1` [Compound 1-11], with 2.76^[a]. With `O=C(O)c1cc(Cl)ncc1Oc1cccc(C2CC2)c1` [Compound 1-12], the LogP was 2.87^[a].

Turning to `O=C(O)c1cc(Cl)nc(F)c1Oc1cccc(C(F)(F)F)c1` [Compound 1-14], the LogP was 2.95^[a]. On the same count and under the same terms, then `COc1cc(C(=O)O)c(Oc2cccc(C(F)(F)F)c2)cn1` [Compound 1-15], with 2.86^[a]. On the same count and under the same terms, to `O=C(O)c1c(Oc2cccc(C(F)(F)F)c2)cnc(Cl)c1I` [Compound 1-17] belongs 2.49^[a]. Still for that read-out and setting: to `Cc1ccc(CC(CON2C(=O)c3ccccc3C2=O)NC(=O)OC(C)(C)C)c(Cl)c1` (stereo not shown) [Compound 2-05] belongs 4.41^[a]; to `Cc1ccc(CC(CON)NC(=O)c2cc(Cl)ncc2Br)c(C)c1` (stereo not shown) [Compound 6-01], 2.20^[a]. In the case of `Cc1ccc(CC(CON2C(=O)c3ccccc3C2=O)NC(=O)c2cc(Cl)ncc2Br)c(C)c1` (stereo not shown) [Compound 6-02], the LogP is 4.13^[a].

The data set is the same for the next values; noted with them: Table 3, compounds of formula (1); method [a]: LC-UV, acidic range, 0.1% formic acid in water and acetonitrile.
Consider `COC(=O)c1cc(Cl)ncc1Oc1cccc(C(F)(F)F)c1` [Compound 1-07, methyl 2-chloro-5-[3-(trifluoromethyl)phenoxy]isonicotinate], for which the chromatographic logP was found to be 3.84. Still for that read-out and setting: then `O=C(O)c1cc(Cl)ncc1Oc1cccc(C(F)(F)F)c1` [Compound 1-13, 2-chloro-5-[3-(trifluoromethyl)phenoxy]isonicotinic acid], with 2.84.

Still in this data set, the particulars now being: Table 15, compounds of formula (9); method [a]: LC-UV, acidic range, 0.1% formic acid in water and acetonitrile.
Take `N#Cc1cc(Cl)ncc1Oc1cccc(C(F)(F)F)c1` [Compound 9-01, 2-chloro-5-[3-(trifluoromethyl)phenoxy]isonicotinonitrile]: the chromatographic logP was 3.77.

What is called chromatographic logP is lipophilicity estimated from chromatographic retention. High values mean a more lipophilic compound, low ones a more hydrophilic compound.
